Consider two compounds from paper PMC4407702 (International journal of pharmaceutics, 2011).

Each structure is given as a SMILES string. Values after ≈ are worked out from the molar mass of the structure shown. Values joined by “and” are separate entries in the source; they are usually repeats but may differ in a detail not shown here. Equal entries are not always repeated. Where two headings read alike, the source gives them in different places.

Data set [1] addresses SVCT (Canis lupus familiaris, UniProt A8CX01). As to the kind of experiment: Inhibition of [14C]AA uptake in MDCK-MDR1 cells. The conditions noted are these: 200 μM unlabeled compound, [14C]AA 23.5 μM. Type of data set: cell-based, canine.
Data set [2] concerns the target SVCT (Homo sapiens, UniProt Q9UHI7). As to the kind of experiment: Inhibition of [14C]AA uptake in Caco-2 cells. Type of data set: cell-based. The conditions noted are these: 200 μM unlabeled compound, [14C]AA 23.5 μM.
A short description of data set [3]: Transepithelial transport across Caco-2 cell monolayers. It is filed as in vitro ADME. The conditions noted are these: human, Caco-2.
Data set [4] concerns Caco-2 cell monolayers. The data set is described as above. Type of data set: in vitro ADME.
A further data set in a line: Aqueous solubility study. Type of data set: physicochemical. The conditions noted are these: distilled deionized water, 25 °C, thermodynamic from solid.
Data set [5] concerns Caco-2 cell monolayers. The conditions noted are these: ref Ucpinar and Stavchansky, 2003; cited from earlier work.
Data set [6] concerns MDCK-MDR1 cell monolayers. To be noted: ref Jain et al., 2005; cited from earlier work.
Setting [7] is: Caco-2, [14C]AA 23.5 μM or AA-Su-Saq 25 μM donor, 3 h.

SVCT (Homo sapiens, UniProt Q9UHI7), sequence (Q9UHI7 whole entry): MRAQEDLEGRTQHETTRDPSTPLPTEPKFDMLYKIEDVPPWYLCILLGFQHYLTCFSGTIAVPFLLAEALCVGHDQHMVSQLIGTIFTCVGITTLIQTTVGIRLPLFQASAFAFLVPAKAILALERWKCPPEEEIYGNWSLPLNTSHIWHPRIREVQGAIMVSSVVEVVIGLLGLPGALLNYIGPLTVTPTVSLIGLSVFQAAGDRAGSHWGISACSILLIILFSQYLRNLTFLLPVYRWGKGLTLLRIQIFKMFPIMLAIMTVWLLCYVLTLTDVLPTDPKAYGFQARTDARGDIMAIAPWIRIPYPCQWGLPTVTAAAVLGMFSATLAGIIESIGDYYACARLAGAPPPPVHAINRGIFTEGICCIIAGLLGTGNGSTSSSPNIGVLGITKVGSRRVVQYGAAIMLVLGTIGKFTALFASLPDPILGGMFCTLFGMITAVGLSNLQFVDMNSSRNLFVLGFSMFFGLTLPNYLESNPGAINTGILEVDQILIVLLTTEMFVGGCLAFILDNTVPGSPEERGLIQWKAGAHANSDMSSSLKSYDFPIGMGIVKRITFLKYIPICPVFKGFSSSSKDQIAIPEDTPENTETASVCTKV
SVCT (Canis lupus familiaris, UniProt A8CX01), sequence (A8CX01 1-605): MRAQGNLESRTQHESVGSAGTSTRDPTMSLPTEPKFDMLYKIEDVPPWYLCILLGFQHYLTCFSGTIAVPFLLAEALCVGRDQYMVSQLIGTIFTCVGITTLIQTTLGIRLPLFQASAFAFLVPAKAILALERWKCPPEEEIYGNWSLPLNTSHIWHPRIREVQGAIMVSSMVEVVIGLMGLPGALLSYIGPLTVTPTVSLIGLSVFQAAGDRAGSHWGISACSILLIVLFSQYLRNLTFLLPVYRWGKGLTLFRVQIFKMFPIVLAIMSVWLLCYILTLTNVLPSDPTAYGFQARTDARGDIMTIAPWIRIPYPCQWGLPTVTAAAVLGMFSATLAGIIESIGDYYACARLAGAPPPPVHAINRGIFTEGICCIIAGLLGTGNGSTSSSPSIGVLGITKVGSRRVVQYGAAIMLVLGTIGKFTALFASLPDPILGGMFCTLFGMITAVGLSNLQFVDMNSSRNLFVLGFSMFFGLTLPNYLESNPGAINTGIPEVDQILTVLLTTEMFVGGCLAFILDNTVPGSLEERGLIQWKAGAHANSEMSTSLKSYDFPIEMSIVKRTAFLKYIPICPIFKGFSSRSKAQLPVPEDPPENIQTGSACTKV

As a reminder, the Papp A→B is the apparent permeability from the apical to the basolateral side of a cell layer. Higher therefore signals ready permeation. The term Papp B→A denotes the apparent permeability from the basolateral to the apical side of a cell layer. In the case of `O=C1O[C@H]([C@@H](O)CO)C(O)=C1O` [AA, L-Ascorbic acid], on SVCT [1], the “Uptake of [14C]AA diminished (inhibition)” value turned out to be 65%. Further, the “Inhibition of [14C]AA uptake” value at SVCT [2] is listed as 66%. In data set [3], the apparent permeability from apical to basolateral (Papp A→B) at 3 h, 23.5 μM is 17.6 ± 0.39 ×10⁻⁶ cm/s and the Papp B→A at 3 h, 23.5 μM was found to be 15.5 ± 3.11 ×10⁻⁶ cm/s. In addition, in the data set with Caco-2 cell monolayers [4] (setting [7]), the “P(A–B)” value was 17.6 ± 0.39 cm/s, × 10^−6 and the “P(B–A)” value is reported as 15.5 ± 3.11 cm/s, × 10^−6. Also, the “PA–B and PB–A in Caco-2 cells higher than in MDCK-MDR1 cells” value in the data set on Caco-2 cell monolayers [4] (Caco-2 vs MDCK-MDR1) is “about 2 fold”.

Broadly, the solubility is how much of the substance goes into solution per volume. A higher solubility goes with a readily soluble substance. In the case of `CC(C)(C)NC(=O)[C@@H]1C[C@@H]2CCCC[C@@H]2CN1C[C@@H](O)[C@H](Cc1ccccc1)NC(=O)[C@H](CC(N)=O)NC(=O)c1ccc2ccccc2n1` [Saq, Saquinavir], in “Aqueous solubility study”, the solubility at 24 h is 1750 ± 290 µM (≈ 1170 µg/mL). Besides, in the data set with Caco-2 cell monolayers [5], the “P(A–B)” value is 0.93 cm/s, × 10^−6 and 0.93 ±0.10 cm/s, × 10^−6; the “P(B–A)” value was 20.39 ± 1.53 cm/s, × 10^−6. Besides, in data set [6], the “P(A–B)” value is 0.463 ± 0.025 cm/s, × 10^−6; the “P(B–A)” value was 19.9 ± 1.70 cm/s, × 10^−6; the “PA–B” value was 0.463 ×10⁻⁶ cm/s.
